# Experimental data: the supplement of paper PMC10627819
# Columns and labels:
# S. aureus DSM 20231 [1] = experiment: Bliss interaction score (quartile over a dose matrix) (fitness difference); higher = more antagonism (negative = synergy)
# Method in brief: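 Each plate was normalised to the robust mean of its own no-drug wells, using OD595 at entry into stationary phase, with values capped at 1. This normalised growth is the fitness value. The Bliss score is the difference between observed and product-expected fitness, with single-drug fitness inferred from the combination data and quartiles taken over technical, biological and donor/recipient replicates.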
# S. aureus DSM 20231 [2] = experiment: fitness (endpoint OD595 vs no drug) (fraction); higher = more growth
# Method in brief: (§1)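 Background-subtracted growth curves were the basis for fitness, taken as the optical density at entry into stationary phase over the robust mean of no-drug control wells. A cap of 1 was applied. The curves came from OD595 readings every 30 min for 14 h at 37 °C, in 384-well plates seeded at OD595 0.01 with 30 µl, or 55 µl for S. pneumoniae.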
# B. subtilis 168 = experiment: as above
# Method in brief: as §1
# S. aureus Newman = experiment: as above
# Method in brief: as §1
# S. pneumoniae D39V = experiment: as above
# Method in brief: as §1
# [3] = first compound 1 µg/mL, partner 4 µg/mL
# [4] = first compound 1 µg/mL, partner 8 µg/mL
# [5] = first compound 1 µg/mL, partner 16 µg/mL
# [6] = first compound 1 µg/mL, partner 32 µg/mL, one replicate
# [7] = first compound 1 µg/mL, partner 64 µg/mL, one replicate
# [8] = first compound 2 µg/mL, partner 4 µg/mL
# [9] = first compound 2 µg/mL, partner 8 µg/mL
# [10] = first compound 2 µg/mL, partner 16 µg/mL
# [11] = first compound 2 µg/mL, partner 32 µg/mL, one replicate
# [12] = first compound 2 µg/mL, partner 64 µg/mL, one replicate
# [13] = first compound 4 µg/mL, partner 4 µg/mL
# [14] = first compound 4 µg/mL, partner 8 µg/mL
# [15] = first compound 4 µg/mL, partner 16 µg/mL
# [16] = first compound 4 µg/mL, partner 32 µg/mL, one replicate
# [17] = first compound 4 µg/mL, partner 64 µg/mL, one replicate
# 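For Bliss interaction score (quartile over a dose matrix) in this document: first quartile when negative (synergy) and third quartile when positive (antagonism).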
compound,measurement,setting,value
CN(C)CCCN1c2ccccc2Sc2ccc(Cl)cc21 [Chlorpromazine] + CN[C@H](CC(C)C)C(=O)N[C@H]1C(=O)N[C@@H](CC(N)=O)C(=O)N[C@H]2C(=O)N[C@H]3C(=O)N[C@H](C(=O)N[C@H](C(=O)O)c4cc(O)cc(O)c4-c4cc3ccc4O)[C@H](O[C@H]3C[C@](C)(N)[C@@H](O)[C@H](C)O3)c3ccc(c(Cl)c3)Oc3cc2cc(c3O[C@@H]2O[C@H](CO)[C@@H](O)[C@H](O)[C@H]2O[C@H]2C[C@](C)(NCc3ccc(-c4ccc(Cl)cc4)cc3)[C@@H](O)[C@H](C)O2)Oc2ccc(cc2Cl)[C@H]1O [Oritavancin],Bliss interaction score,S. aureus DSM 20231 [1],-0.202
CC[C@H]1OC(=O)[C@H](C)C(=O)[C@H](C)[C@@H](O[C@@H]2O[C@H](C)C[C@H](N(C)C)[C@H]2O)[C@](C)(OC)C[C@@H](C)C(=O)[C@H](C)[C@H]2N(CCCCn3cnc(-c4cccnc4)c3)C(=O)O[C@]12C [Telithromycin] + Cc1ccc(C(C)C)c(O)c1 [Thymol],Bliss interaction score,S. aureus DSM 20231 [1],-0.222
Cc1c(Cl)cccc1Nc1ccccc1C(=O)O [Tolfenamic] + COc1cc(Cc2cnc(N)nc2N)cc(OC)c1OC [Trimethoprim],Bliss interaction score,S. aureus DSM 20231 [1],-0.185
CC[C@H]1OC(=O)[C@H](C)[C@@H](O[C@H]2C[C@@](C)(OC)[C@@H](O)[C@H](C)O2)[C@H](C)[C@@H](O[C@@H]2O[C@H](C)C[C@H](N(C)C)[C@H]2O)[C@](C)(O)C[C@@H](C)CN(C)[C@H](C)[C@@H](O)[C@]1(C)O [Azithromycin] + CN(C)[C@@H]1C(O)=C(C(N)=O)C(=O)[C@@]2(O)C(O)=C3C(=O)c4c(O)ccc(Cl)c4[C@@](C)(O)[C@H]3C[C@@H]12 [Chlortetracycline],fitness,"S. aureus DSM 20231 [2]; first compound 0.125 µg/mL, partner 0.006 µg/mL, one replicate",0.629
same,fitness,"S. aureus DSM 20231 [2]; first compound 0.125 µg/mL, partner 0.024 µg/mL",0.112
same,fitness,"S. aureus DSM 20231 [2]; first compound 0.125 µg/mL, partner 0.048 µg/mL",0.0779
same,fitness,"S. aureus DSM 20231 [2]; first compound 0.25 µg/mL, partner 0.006 µg/mL, one replicate",0.46
same,fitness,"S. aureus DSM 20231 [2]; first compound 0.25 µg/mL, partner 0.024 µg/mL",0.0335
same,fitness,"S. aureus DSM 20231 [2]; first compound 0.25 µg/mL, partner 0.048 µg/mL",0.0451
same,fitness,"S. aureus DSM 20231 [2]; first compound 0.5 µg/mL, partner 0.006 µg/mL, one replicate",0.0187
same,fitness,"S. aureus DSM 20231 [2]; first compound 0.5 µg/mL, partner 0.012 µg/mL",0.0274
same,fitness,"S. aureus DSM 20231 [2]; first compound 0.5 µg/mL, partner 0.024 µg/mL",0.0241
same,fitness,"S. aureus DSM 20231 [2]; first compound 0.5 µg/mL, partner 0.048 µg/mL",0.0364
same,fitness,"B. subtilis 168; first compound 0.25 µg/mL, partner 0.0475 µg/mL",0.824
same,fitness,"B. subtilis 168; first compound 2 µg/mL, partner 0.0475 µg/mL, one replicate",0.0292
same,fitness,"B. subtilis 168; first compound 2 µg/mL, partner 0.095 µg/mL, one replicate",0.0192
same,fitness,"B. subtilis 168; first compound 2 µg/mL, partner 0.19 µg/mL, one replicate",0.025
CN(C)CCCN1c2ccccc2Sc2ccc(Cl)cc21 [Chlorpromazine] + CC(=O)NC[C@H]1CN(c2ccc(N3CCOCC3)c(F)c2)C(=O)O1 [Linezolid],Bliss interaction score,S. aureus DSM 20231 [1],-0.236
c1ccc2c(CC3=NCCN3)cccc2c1 [Naphazoline] + COc1cc(Cc2cnc(N)nc2N)cc(OC)c1OC [Trimethoprim],Bliss interaction score,S. aureus DSM 20231 [1],0.236
CNC(C)C1CCC(N)C(OC2C(N)CC(N)C(OC3OCC(C)(O)C(NC)C3O)C2O)O1 (configuration not stated) [Gentamicin] + CCCc1nc2c(C)cc(-c3nc4ccccc4n3C)cc2n1Cc1ccc(-c2ccccc2C(=O)O)cc1 [Telmisartan],Bliss interaction score,S. aureus DSM 20231 [1]; main component drawn,0.241
CNC(C)C1CCC(N)C(OC2C(N)CC(N)C(OC3OCC(C)(O)C(NC)C3O)C2O)O1 (configuration not stated) [Gentamicin] + CC(C)Cc1ccc(C(C)C(=O)O)cc1 [Ibuprofen],Bliss interaction score,S. aureus DSM 20231 [1]; main component drawn,-0.442
Cc1onc(-c2ccccc2)c1C(=O)N[C@@H]1C(=O)N2[C@@H]1SC(C)(C)[C@@H]2C(=O)O [Oxacillin] + CCCSc1nc(N[C@@H]2C[C@H]2c2ccc(F)c(F)c2)c2nnn([C@@H]3C[C@H](OCCO)[C@@H](O)[C@H]3O)c2n1 [Ticagrelor],Bliss interaction score,S. aureus DSM 20231 [1],0.171
CN(N=O)C(=O)N[C@@H](C=O)[C@@H](O)[C@H](O)[C@H](O)CO [Streptozotocin] + CCCSc1nc(N[C@@H]2C[C@H]2c2ccc(F)c(F)c2)c2nnn([C@@H]3C[C@H](OCCO)[C@@H](O)[C@H]3O)c2n1 [Ticagrelor],Bliss interaction score,S. aureus DSM 20231 [1],0.221
Cc1cc(NS(=O)(=O)c2ccc(N)cc2)no1 [Sulfamethoxazol] + CN[C@@H]1[C@H](O)[C@H](NC)[C@H]2O[C@@]3(O)C(=O)C[C@@H](C)O[C@H]3O[C@@H]2[C@H]1O [Spectinomycin],fitness,S. aureus Newman; [3],0.972
same,fitness,S. aureus Newman; [4],0.986
same,fitness,S. aureus Newman; [5],0.877
same,fitness,S. aureus Newman; [6],0.589
same,fitness,S. aureus Newman; [7],0.0829
same,fitness,S. aureus Newman; [8],0.964
same,fitness,S. aureus Newman; [9],0.985
same,fitness,S. aureus Newman; [10],0.927
same,fitness,S. aureus Newman; [11],0.577
same,fitness,S. aureus Newman; [12],0.0759
same,fitness,S. aureus Newman; [13],0.983
same,fitness,S. aureus Newman; [14],0.967
same,fitness,S. aureus Newman; [15],0.925
same,fitness,S. aureus Newman; [16],0.581
same,fitness,S. aureus Newman; [17],0.0529
same,fitness,"S. aureus Newman; first compound 8 µg/mL, partner 4 µg/mL, one replicate",≥ 1
same,fitness,"S. aureus Newman; first compound 8 µg/mL, partner 8 µg/mL, one replicate",0.959
same,fitness,"S. aureus Newman; first compound 8 µg/mL, partner 16 µg/mL, one replicate",0.905
same,fitness,S. pneumoniae D39V; [3],0.954
same,fitness,S. pneumoniae D39V; [4],0.935
same,fitness,"S. pneumoniae D39V; first compound 1 µg/mL, partner 16 µg/mL, one replicate",0.691
same,fitness,S. pneumoniae D39V; [8],0.889
same,fitness,S. pneumoniae D39V; [9],0.899
same,fitness,"S. pneumoniae D39V; first compound 2 µg/mL, partner 16 µg/mL, one replicate",0.634
same,fitness,S. pneumoniae D39V; [13],0.924
same,fitness,S. pneumoniae D39V; [14],0.922
same,fitness,"S. pneumoniae D39V; first compound 4 µg/mL, partner 16 µg/mL, one replicate",0.702
same,fitness,S. aureus DSM 20231 [2]; [3],0.897
same,fitness,S. aureus DSM 20231 [2]; [4],0.822
same,fitness,S. aureus DSM 20231 [2]; [5],0.763
same,fitness,S. aureus DSM 20231 [2]; [6],0.826
same,fitness,S. aureus DSM 20231 [2]; [7],0.08
same,fitness,S. aureus DSM 20231 [2]; [8],0.896
same,fitness,S. aureus DSM 20231 [2]; [9],0.861
same,fitness,S. aureus DSM 20231 [2]; [10],0.812
same,fitness,S. aureus DSM 20231 [2]; [11],0.796
same,fitness,S. aureus DSM 20231 [2]; [12],0.0783
same,fitness,S. aureus DSM 20231 [2]; [13],0.994
same,fitness,S. aureus DSM 20231 [2]; [14],0.957
same,fitness,S. aureus DSM 20231 [2]; [15],0.849
same,fitness,S. aureus DSM 20231 [2]; [16],0.802
same,fitness,S. aureus DSM 20231 [2]; [17],0.0708
same,fitness,"B. subtilis 168; first compound 0.5 µg/mL, partner 2 µg/mL, one replicate",0.916
same,fitness,"B. subtilis 168; first compound 0.5 µg/mL, partner 4 µg/mL, one replicate",0.882
same,fitness,"B. subtilis 168; first compound 0.5 µg/mL, partner 8 µg/mL, one replicate",0.851
same,fitness,"B. subtilis 168; first compound 1 µg/mL, partner 2 µg/mL",0.926
same,fitness,B. subtilis 168; [3],0.92
same,fitness,B. subtilis 168; [4],0.96
same,fitness,"B. subtilis 168; first compound 2 µg/mL, partner 2 µg/mL",0.853
same,fitness,B. subtilis 168; [8],0.861
same,fitness,B. subtilis 168; [9],0.891
same,fitness,"B. subtilis 168; first compound 4 µg/mL, partner 2 µg/mL",0.941
same,fitness,B. subtilis 168; [13],0.959
same,fitness,B. subtilis 168; [14],0.891
